Experimental data taken from patent publication US20260184681A1, “PIPERIDINE DERIVATIVE, SALT OF SAME, AND PHARMACEUTICAL COMPOSITION CONTAINING SAME AS ACTIVE INGREDIENT” (PHARMCADD CO., LTD., priority 2022, published 2026).
Where a name gives a salt, the structure may show the parent alone.

System: MV4-11, an acute myeloid leukemia cell line
Experiment: WST-8 cell viability assay (inhibition of cancer cell proliferation) in MV4-11
Format: cell-based
Conditions: Homo sapiens, MV4-11 cells, 72 hours, WST-8 assay; for inhibition at 10 µM: compound at 10 μM; for IC50: final concentration 0.02 to 100 μM
Method: In order to confirm the inhibition of cancer cell proliferation of the compound, the WST-8 assay (Cyto X cell viability assay kit, LPS solution, Daejeon, Korea) was performed according to the manufacturer's protocol. MV4-11, an acute myeloid leukemia cell line, was inoculated into a 96-well plate at 3×10^3 per well. The cells were cultured for 24 hours, and treated with the compound at a concentration of 10 μM. After 72 hours, the culture medium was discarded and a chromatographic solution was added. Following a 1-hour incubation at 37° C., color development was observed, and the absorbance was measured at 480 nm using a Versamax microplate reader (Molecular Devices, CA, USA). In addition, in order to confirm the IC50 value of the compound in MV4-11, the cells were treated with the compound with the final concentration of 0.02 to 100 μM in the same manner as the experiment above.

Row | IC50 [µM] | SMILES | inhibition at 10 µM [%]
1 | 7.81 | CC(C)(C)c1ccc(C(=O)Nc2ccc(C(N)=O)c(NC3CCCN(C(=O)Nc4ccc(C(F)(F)F)cc4)C3)c2)cc1 (stereo not shown) [Example B-36, 3-((5-(4-(tert-butyl)benzamido)-2-carbamoylphenyl)amino)-N-(4-(trifluoromethyl)phenyl)piperidine-1-carboxamide] | 97.2
2 | 3.42 | CCN1CCCC(Nc2cc(NC(=O)c3ccc(C(C)(C)C)cc3)ccc2C(=O)OC)C1 [Example D-1, methyl 4-(4-(tert-butyl)benzamido)-2-((1-ethylpiperidin-3-yl)amino)benzoate] | 100
3 | 4.75 | CC(C)(C)c1ccc(C(=O)Nc2ccc(C(N)=O)c(NC3CCCN(C(=O)NCc4cccc(F)c4)C3)c2)cc1 (stereo not shown) [Example B-15, 3-((5-(4-(tert-butyl)benzamido)-2-carbamoylphenyl)amino)-N-(3-fluorobenzyl)piperidine-1-carboxamide] | 100
4 | 6.74 | CN(C)S(=O)(=O)N1CCCC(Nc2cc(NC(=O)c3ccc(C(C)(C)C)cc3)ccc2C(N)=O)C1 (stereo not shown) [Example A-3, 4-(tert-butyl)-N-(4-carbamoyl-3-((1-(N,N-dimethylsulfamoyl)piperidin-3-yl)amino)phenyl)benzamide] | 87.6
5 | 4.1 | CC(C)(C)c1ccc(C(=O)Nc2ccc(C(N)=O)c(NC3CCCN(S(=O)(=O)Cc4ccccc4)C3)c2)cc1 (stereo not shown) [Example A-15, N-(3-((1-(benzylsulfonyl)piperidin-3-yl)amino)-4-carbamoylphenyl)-4-(tert-butyl)benzamide] | 95.9
6 | 3.8 | CC(C)(C)c1ccc(C(=O)Nc2ccc(C(N)=O)c(NC3CCCN(C(=O)Nc4ccccc4)C3)c2)cc1 (stereo not shown) [Example B-12, 3-((5-(4-(tert-butyl)benzamido)-2-carbamoylphenyl)amino)-N-phenylpiperidine-1-carboxamide] | 96.2
7 | 4.68 | CC(C)(C)c1ccc(C(=O)Nc2ccc(C(N)=O)c(NC3CCCN(C(=O)Nc4ccc(I)cc4)C3)c2)cc1 (stereo not shown) [Example B-24, 3-((5-(4-(tert-butyl)benzamido)-2-carbamoylphenyl)amino)-N-(4-iodophenyl)piperidine-1-carboxamide] | 94
8 | 5.32 | CCc1cccc(CC)c1NC(=O)N1CCCC(Nc2cc(NC(=O)c3ccc(C(C)(C)C)cc3)ccc2C(N)=O)C1 (stereo not shown) [Example B-18, 3-((5-(4-(tert-butyl)benzamido)-2-carbamoylphenyl)amino)-N-(2,6-diethylphenyl)piperidine-1-carboxamide] | 93.7
9 | 4.5 | CCCCN1CCCC(Nc2cc(NC(=O)c3ccc(C(C)(C)C)cc3)ccc2C(N)=O)C1 [Example D-6, 4-(tert-butyl)-N-(3-((1-butylpiperidin-3-yl)amino)-4-carbamoylphenyl)benzamide] | 95.5
10 | 4.3 | CN1CCCC(Nc2cc(NC(=O)c3ccc(C(C)(C)C)cc3)ccc2C(N)=O)C1 [Example D-9, 4-(tert-butyl)-N-(4-carbamoyl-3-((1-methylpiperidin-3-yl)amino)phenyl)benzamide] | 100
11 | 1.7 | CC(C)(C)c1ccc(C(=O)Nc2ccc(C(N)=O)c(NC3CCNCC3)c2)cc1 [Example D-11, 4-(tert-butyl)-N-(4-carbamoyl-3-(piperidin-4-ylamino)phenyl)benzamide trifluoroacetate] | 70
12 | 3.26 | CCCCCCCCNC(=O)N1CCCC(Nc2cc(NC(=O)c3ccc(C(C)(C)C)cc3)ccc2C(N)=O)C1 (stereo not shown) [Example B-39, 3-((5-(4-(tert-butyl)benzamido)-2-carbamoylphenyl)amino)-N-octylpiperidine-1-carboxamide] | 100
13 | 4.59 | COC(=O)c1ccc(NC(=O)c2ccc(C(C)(C)C)cc2)cc1NC1CCCN(C)C1 [Example D-7, methyl 4-(4-(tert-butyl)benzamido)-2-((1-methylpiperidin-3-yl)amino)benzoate] | 100
14 | 15.3 | CCCCNC(=O)N1CCCC(Nc2cc(NC(=O)c3ccc(C(C)(C)C)cc3)ccc2C(=O)OC)C1 (stereo not shown) [Example B-4, methyl 4-(4-(tert-butyl)benzamido)-2-((1-(butylcarbamoyl)piperidin-3-yl)amino)benzoate] | 84.6
15 | 4.48 | CC(C)(C)c1ccc(C(=O)Nc2ccc(C(N)=O)c(NC3CCCN(C(=O)c4ccccc4)C3)c2)cc1 (stereo not shown) [Example C-6, N-(3-((1-benzoylpiperidin-3-yl)amino)-4-carbamoylphenyl)-4-(tert-butyl)benzamide] | 97.1
16 | 9.6 | CC(C)(C)c1ccc(C(=O)Nc2ccc(C(=O)O)c(NC3CCCN(Cc4ccccc4)C3)c2)cc1 (stereo not shown) [Example E-2, 2-((1-benzylpiperidin-3-yl)amino)-4-(4-(tert-butyl)benzamido)benzoic acid] | 71.1
17 | 2.2 | CCCCN1CCCC(Nc2cc(NC(=O)c3ccc(C(C)(C)C)cc3)ccc2C(=O)OC)C1 [Example D-4, methyl 4-(4-(tert-butyl)benzamido)-2-((1-butylpiperidin-3-yl)amino)benzoate] | 97.8
18 |  | COc1cc([N+](=O)[O-])ccc1NC(=O)N1CCCC(Nc2cc(NC(=O)c3ccc(C(C)(C)C)cc3)ccc2C(N)=O)C1 (stereo not shown) [Example B-33, 3-((5-(4-(tert-butyl)benzamido)-2-carbamoylphenyl)amino)-N-(2-methoxy-4-nitrophenyl)piperidine-1-carboxamide] | 80.5
19 | 9.6 | CC(C)S(=O)(=O)N1CCCC(Nc2cc(NC(=O)c3ccc(C(C)(C)C)cc3)ccc2C(N)=O)C1 (stereo not shown) [Example A-18, 4-(tert-butyl)-N-(4-carbamoyl-3-((1-(isopropylsulfonyl)piperidin-3-yl)amino)phenyl)benzamide] | 90.3
20 | 2 | CC(C)(C)c1ccc(C(=O)Nc2ccc(C(N)=O)c(NC3CCCNC3)c2)cc1 [Example D-10, 4-(tert-butyl)-N-(4-carbamoyl-3-(piperidin-3-ylamino)phenyl)benzamide trifluoroacetate] | 70
21 | 2.2 | COC(=O)c1ccc(NC(=O)c2ccc(C(C)(C)C)cc2)cc1NC1CCCN(Cc2ccccc2)C1 (stereo not shown) [Example E-1, methyl 2-((1-benzylpiperidin-3-yl)amino)-4-(4-(tert-butyl)benzamido)benzoate] | 70.1
22 | 2.4 | CC(C)(C)c1ccc(C(=O)Nc2ccc(C(N)=O)c(NC3CCCN(C(=O)NC4CCCCC4)C3)c2)cc1 (stereo not shown) [Example B-9, 3-((5-(4-(tert-butyl)benzamido)-2-carbamoylphenyl)amino)-N-cyclohexylpiperidine-1-carboxamide] | 94.6
